Results taken from publication PMC6368403, “Identification of a bilirubin receptor that may mediate a component of cholestatic itch” (eLife, 2019).

What was measured:
DRG neurons = assay: Ca2+ imaging of cultured DRG neurons; assay type: cell-based, mouse; conditions: for Percent activated neurons: 50 µM bilirubin (Fig 3H)
Description: All cultured cells were maintained in DMEM supplemented with 10% FBS and 1% Penicillin/Streptomycin at 37°C, 5% CO2. […] Cells were imaged in calcium imaging buffer (CIB; 10 mM HEPES, 1.2 mM NaHCO3, 130 mM NaCl, 3 mM KCl, 2.5 mM CaCl2, 0.6 mM MgCl2, 20 mM glucose, and 20 mM sucrose at pH 7.4 and 290–300 mOsm). To monitor changes in intracellular [Ca^2+] ([Ca^2+]i), cells were loaded with either Fura 2-AM (HEK293 cells) or Fluo 4-AM (DRG neurons and mast cells) for 30 min in the dark at 37°C in CIB just prior to imaging. With Fura 2-AM, emission at 510 nm was monitored from excitation at both 340 nm and 380 nm. With Fluo 4-AM, emission at 520 nm was monitored from excitation at 488 nm. Cells were identified as responding if the intracellular [Ca^2+] rose by either 50% compared to baseline or 50% compared to the [Ca^2+]i change assayed during addition of 50 mM KCl (neurons only). Damaged, detached, high-baseline, and motion-activated cells were excluded from analysis.
DRGs were incubated with Fluo-4 AM 24 hr after dissociation (native genotype) or 48 hr after dissociation (virally transduced). Unless otherwise noted, cells were imaged for 20 seconds to establish a baseline before compounds were added. After 30 s, a 2 min wash was applied before addition of another substances. At the end of every imaging trial, 50 mM KCl was added as a positive control. […] For ruthenium red inhibitor experiments, neurons were incubated with 10 µM ruthenium red for 5 min prior to imaging. Percentage activated was determined as earlier described.
(§1) DRG neurons from all spinal levels were collected in cold DH10 media (90% Dulbecco’s modified Eagle’s medium (DMEM)/F-12, 10% FBS, penicillin (100 U/mL), and streptomycin (100 μg/mL)). DRGs were digested with a dispase (5 mg/ml)/collagenase type I (1 mg/ml) enzyme mixture at 37°C for 45 min. After trituration, cells were spun at 300 g and re-suspended in DH10 before being plated on glass coverslips coated with poly-D-lysine (0.5 mg/ml) and laminin (10 μg/ml, Invitrogen). DRGs were cultured with DH10 supplemented with 50 ng/mL NGF at 37°C.

[1] = system: small-diameter DRG sensory neurons; assay: Whole-cell current-clamp recording of DRG neurons; assay type: cell-based, mouse; conditions: 50 µM bilirubin
Description: as §1
DRG neurons from 3 to 5 week old mice were collected as described. After culture for 1–3 days, DRG neurons were transferred into a chamber with extracellular solution containing (in mM) 144 NaCl, 2.5 KCl, 2 CaCl2, 0.5 MgCl2, 5 HEPES, and 10 glucose, adjusted to pH 7.4 with NaOH. Whole-cell current-clamp recordings were performed at ~23°C using borosilicate capillary glass electrodes (Sutter Instrument) with a tip resistance of 3–5 MΩ. Internal solution contained (in mM) 80 K-acetate, 30 KCl, 40 HEPES, and 1 CaCl2, adjusted to pH 7.4 with potassium hydroxide (KOH). Small-diameter neurons with diameter 15–25 μm were chosen for patch-clamp. Data were acquired using an […] Amplifier and Digidata 1322A Digitizer with pClamp9.2 software package (Axon Instrument). […] Solutions containing 50 mM KCl were applied at the end of each cellular recording. Only neurons that could fire action potentials after adding KCl were regarded as healthy and appropriate for inclusion in data analysis.

With `C=CC1=C(C)/C(=C/c2[nH]c(Cc3[nH]c(/C=C4\NC(=O)C(C)=C4C=C)c(C)c3CCC(=O)O)c(CCC(=O)O)c2C)NC1=O` [bilirubin, bilirubin IXα] the Percent activated neurons (DRG neurons; A1 KO DRG) was 1.8%, the Percent activated neurons (DRG neurons; Mrgpr-cluster KO DRG) was 1.9% and the “Percent activated A3+ neurons” value (DRG neurons; Tg(Mrgpra3-Cre);lsl-tdTomato neurons, 50 µM bilirubin (Fig 4D)) was 51.4%. The Percent activated neurons (DRG neurons; WT DRG) was “approximately 5%”, the Percent activated neurons (DRG neurons; WT DRG, listed as Bilirubin) was 5.43% and the “Small-diameter neurons in which action potentials were elicited” value (shortened to “Small-diameter neurons”) ([1]; A1 KO DRG) was 0 out of 60. For the same molecule, the “Small-diameter neurons” value ([1]; A1 KO DRG, listed as Bilirubin) was 0 of 60, the “Small-diameter neurons” value ([1]; WT DRG) was 5 out of 50 and the “Small-diameter neurons” value ([1]; WT DRG, listed as Bilirubin) was 5 of 50.
